One assay has as its system ovalbumen. Briefly: Anti-allergic activity (ovalbumen challenge in sensitised animals, tracheal inflation pressure). It counts as in vivo, Duncan Hartley guinea-pigs. The conditions noted are these: dose of 17 µmol/kg i.v.; ovalbumen challenge 30 minutes following drug administration. The method, then: Male Duncan Hartley guinea-pigs (250-300 g) were sensitised to ovalbumen by i.p. injection of 2 ml of 50mg.ml⁻¹ i.p. and 0.2 ml s.c. Three weeks later they were anaesthetised with 60mg.kg⁻¹ sodium pentabarbitone. The trachea was cannulated and the animal respired at a rate of 40 breaths per minute and at an initial tracheal inflation pressure of 16 mmHg. Tracheal inflation pressure was measured by a transducer connected to a side arm of the respiration circuit. The carotid artery was cannulated for the measurement of blood pressure and the signal was used to trigger an instantaneous rate meter. A jugular vein was cannulated for the administration of drug and allergen. After surgery the animals were allowed to stabilise and the drug was administered i.v. as a bolus. Following this, ovalbumen 1mg.kg⁻¹ was injected i.v. as the antigen challenge either 2, 15 or 30 minutes following drug treatment and the peak bronchoconstrictor response recorded. For the control group ovalbumen only was given. One ovalbumen challenge per guinea-pig was used and n = 6 for each time point. The percentage increase in tracheal inflation pressure was calculated.

The subject of assay [1] is spontaneous colonic activity. Briefly: Inhibition of spontaneous colonic activity in vitro (isolated distal colon, organ bath). More on the design: species or system guinea-pigs. The conditions noted are these: concentration reducing spontaneous colonic activity by 50%, guinea-pig distal colon, Krebs solution at 37°C, read-out: IC₅₀. The source says:
Male albino guinea-pigs (300 - 400g) were killed by a blow to the back of the head and exsanguinated. A 2cm long segment of the proximal part of the hypogastric loop of the distal colon was rapidly dissected out and placed in oxygenated (95% O₂, 5% CO₂) modified warm Krebs solution. The tissue was cleaned out with Krebs and the adjoining mesentery discarded. Cotton was then tied to each end and the colon was attached to a tissue holder in an organ bath containing modified oxygenated Krebs solution at 37°C. The other end of the tissue was tied to an isometric transducer and placed under 1g tension. Force developed by the muscle was detected by the transducer, and recorded on a multitrace pen recorder. Spontaneous colonic activity, as assessed by the contraction distance over a five minute period, was subjected to computer analysis.
The tissues were allowed to settle at a resting tension of 1g for 1 hour, during which time they were washed at 15 minute intervals. Three samples of pre-dose activity were taken and averaged. The tissues were then dosed and two samples of post-dose activity were taken. The lowest value was used to calculate the percentage relaxation, and log dose response curves were constructed. The tissues were washed 10 minutes after dosing and left for 15 minutes to settle prior to the next control period. […]

SMILES strings stand for the structures. Where two headings read alike, the source gives them in different places.

For `CC(C)COc1ccc(F)cc1-c1ccc(C(N)=O)c(=O)[nH]1` [Example 25, 6-(5-Fluoro-2-(2-methylpropoxy)phenyl)-1,2-dihydro-2-oxo-pyridine-3-carboxamide], the “inhibition of the control bronchoconstrictor response” value in the assay on ovalbumen was 40%. With `CCCOc1cc(OC)ccc1-c1ccc(C(N)=O)c(=O)[nH]1` [Example 9(b), 1,2-Dihydro-6-(4-methoxy-2-propoxyphenyl)-2-oxo-3-pyridine carboxamide], the IC50 in assay [1] (Cavia porcellus) was 3000 nM. As for `CCCOc1ccc(C(N)=O)cc1-c1ccc(C(N)=O)c(=O)[nH]1` [Example 13, 3-(3-Carboxamido-1,2-dihydro-2-oxo-6-pyidinyl)-4-propoxybenzamide], the IC50 in assay [1] was 1100 nM.

These data come from patent EP0428268A2, “Pharmaceutical phenylpyridone derivatives” (SMITH KLINE & FRENCH LABORATORIES LIMITED, priority 1989, dated 1991).
